Source: publication PMC7728344, “Pharmacokinetic Characterization of (Poly)phenolic Metabolites in Human Plasma and Urine after Acute and Short-Term Daily Consumption of Mango Pulp” (Molecules, 2020)
Like-named read-outs stand apart in the source and are kept apart here.

Tests used:
clinical = format: in vivo, human; conditions: for AUC(0-t) / Tmax / Cmax: oral, human plasma, mean ± standard error; for AUC(0-t): read-out: AUC0–24h; for Tmax: read-out: Tmax; for Cmax: 0−24 h, read-out: Cmax
Procedure: SPE procedure was conducted to extract and concentrate the (poly)phenolic compounds and their metabolites from the plasma samples. Briefly, plasma samples were thawed on ice and 500 µL plasma was diluted with 1.5 mL of 0.1% formic acid in water with addition of internal standards (2-methylhippuric acid (2 ng/mL), phloridizin (1 ng/mL)) before being loaded on preconditioned SPE cartridges. The cartridges were washed with 0.1% formic acid in water (1 mL) after loading with plasma samples. The elution of the compounds was achieved by 0.1% formic acid in methanol (1 mL) and the eluent was dried under nitrogen gas at room temperature. […] Supernatant was collected in amber HPLC vials before analysis.
The absorption and elimination of 11 major mango metabolites over 24 h was determined after MP, MP + VC, and VC intake. The plasma concentration/area at each time point was determined by the mean of 13 subjects. The time vs. concentration curves and the time vs. area curves were created using GraphPad Prism (version 8.2.1). […] Tmax is the time (h) when Cmax was achieved. Wilcoxon signed-rank test was used for Tmax analysis due to non-normal distribution. Area under the plasma concentration time curve (AUC0−24h, nmol·h/L) was calculated by the linear trapezoidal method using Microsoft Excel 2013, version 15 [63]. […]

[1] = Concentration of (poly)phenolic metabolites in fasting urine at baseline, 24 h after single MP beverage and 15th day after 14-day MP intake (UHPLC-QQQ-MS); conditions: human, urine, oral
Description: The acute trial was a randomized, 3 arm, within-subject crossover study design (Figure 5A). The trial initiated with 3 days of food record collection to assess background (pre-study) dietary intake followed by counseling to adhere to a diet devoid of mango or its parts and relatively low in polyphenol-rich beverages/foods, which was maintained throughout the duration of the trial. […] In general, subjects were encouraged to follow their “usual” diet with the exception of foods/beverages that may interfere with the outcomes of the study. Food intake diaries and, phone call and email reminders helped subjects maintain compliance throughout the study period. After an initial 7-day run-in period on the limited polyphenol diet, subjects were assigned to a randomization sequence providing 1 of 3 study test beverages (recipes provided in Appendix A, Table A3) on three separate days in a random order: MP (500 g), MP (500 g) + VC (100 mg) or VC (100 mg) beverages. On each study day subjects arrived fasted and well hydrated. After standard admission procedures were completed (e.g., review of compliance with dietary requirements for 3 days prior to study day, dinner meal intake, usual sleep patterns), a catheter was placed by a registered nurse in subjects’ non-dominant arm and a fasting/baseline blood sample was collected (0 h). Subjects were provided with a standard breakfast meal 2 h after the study beverages. The breakfast meal was comprised of a buttermilk biscuit with butter and jelly, and scrambled egg white with shredded white cheddar cheese. After the 6 h blood collection, subjects ate a low polyphenol lunch consisting of dry roasted peanuts and fresh peeled cucumber with ranch dressing (Appendix A, Table A3).
Spot urine samples were collected in urine collection cups, immediately placed on ice and then aliquoted into individual cryovials. All the samples were stored at −80 °C until analysis.
A 14-day feeding trial was conducted with the MP only to study the effect of repetitive intake of MP on (poly)phenolic metabolite profiles. Upon completion of the acute trial, subjects were instructed to continue on the low polyphenolic diet for 2 weeks while consuming MP beverages (provided by CNRC) daily in the morning (250 g MP + 50 g water) and evening (250 g MP + 50 g water). On day 14, subjects consumed both beverages (500 g of MP in total) in the morning and reported to the CNRC on the 15th day after an overnight fast to provide a fasting blood and urine sample (Figure 5B). Blood and urine samples were collected as described above and stored at −80 °C until analysis.
The supernatant was collected and filtered through 0.2 µm polypropylene syringe filter before HPLC analysis.
The ESI conditions were the same as those used in the UHPLC-Q-TOF analysis. The quantification of the compounds was conducted by multiple-reaction monitoring (MRM) transitions. Spectra were recorded in both positive- and negative-ion mode with capillary voltage of 4500 V and drying gas flow rate of 9 L/min at 200 °C. The sheath gas temperature and flow rate were 300 °C and 11 L/min, respectively. Standards were optimized for collision energies, fragmentor voltages and MRM transitions using Mass Hunter Optimizer. The MRM transition for metabolites were created based on the results from UHPLC-Q-TOF-MS. Standards for plasma analysis were prepared in blank plasma (charcoal-stripped human plasma obtained from Bioreclamation IVT) for matrix match and for urine analysis were prepared in SMP.
The flow rate was maintained at 0.4 mL/min and the injection volume was 5 μL. The mobile phase consisted of acidified water (0.1% formic acid) (A) and acidified acetonitrile (0.1% formic acid) (B). The gradient for the separation of compounds was as follows: 5 to 5% B from 0 to 1 min; 10% B at 3 min; 15% B at 7 min; 15% B at 9 min; 20% B at 10 min; 20% B at 11 min; 25% B at 12 min; 30% B at 13 min; 30% B at 14 min; 95% B at 15 min; and back to 5% B at 16 min.

O=C(O)c1cc(O)c(O)c(O)c1 [Compound C1, gallic acid]
time within which absorbed (clinical; after acute mango intake): 1 to 2 h | difference in plasma concentrations/areas after MP + VC beverage compared to MP beverage alone (clinical; increase observed, statistical outcome): not statistically significant | AUC(0-t) (clinical; 100 mg, after VC beverage): 0.0249 ± 0.0019 µM·h | AUC(0-t) (clinical; 500 g, after MP beverage, linear trapezoidal method): 0.0645 ± 0.0078 µM·h | Tmax (clinical; 500 g, after MP beverage): 2.2 ± 0.4 h | Cmax (clinical; after MP (mango pulp 500 g) beverage, n = 13): 20.4 ± 3.1 nM | Cmax (clinical; after MP + VC (mango pulp 500 g + vitamin C 100 mg) beverage): 21.1 ± 3.9 nM | Cmax (clinical; after VC (vitamin C 100 mg) beverage): 5.3 ± 1.3 nM | AUC(0-t) (clinical; after MP + VC beverage): 0.0628 ± 0.0069 µM·h | Tmax (clinical; after MP + VC beverage): 2 ± 0.3 h | concentration at 15 day [1]: 100 nM | concentration at 0 h ([1]; 500 g): 200 nM | concentration at 24 h ([1]; 500 g): 200 nM
